Read-outs that look alike come from different tables or passages of the source.
Experiments:
ATP levels = experiment: Time course of ATP levels, Compound 1 with oligomycin (FIG. 4); assay type: cell-based; settings: co-administration with oligomycin
[1] = Plasma protein binding, rat; assay type: in vitro ADME
APIPC = experiment: Proliferation EC50, APIPC; assay type: cell-based; settings: Table 2
HFF-1 = experiment: Proliferation EC50, HFF-1; assay type: cell-based; settings: Homo sapiens, Table 2
Protocol: (§1) Anti-tumor activity was determined by screening a series of compounds against the castrate-resistant, androgen-receptor-positive, prostate cancer cell line LNCaP95. […] Inhibition of proliferation was determined based on the level of LNCaP95 cell growth suppression using an MTT assay (NAD(P)H-dependent cellular oxidoreductase enzymatic activities)) read at 72 and 96 hours after addition of the compounds. […] Each cell line was be tested in quadruplicate.
(§2) C4-2 and C4-2B3 are derived from LNCaP but have different characteristics. […] LNCaP, C4-2 and C4-2B require androgen receptor but only LNCaP line is androgen sensitive.
(§3) RWPE-1 is immortalized benign prostate hypertrophic cell line. […] LAPC4 is AR+ castrate resistant line not LNCaP-based prostate cancer. […] HFF1 is human foreskin fibroblast cell line. NCI-H660 is neuroendocrine (NE) prostate cancer human AR− cell line. MSKCC-EF1 is NE human prostate AR- or nearly negative prostate cancer cell line. MCF7 is human breast cancer cell line. U2OS is human osteosarcoma cell line. HepG2 is hepatoma liver tumor cell line. CRL8155 is lymphoblastoid cell line.

HEPG2 = experiment: Cell toxicity, HEPG2 hepatoma cell line; settings: read-out: EC50 HepG2; Table 2
NCI-H660 = experiment: Proliferation EC50, NCI-H660; assay type: cell-based; settings: Homo sapiens, Table 2
Protocol: as §1, §2, §3

U2OS = experiment: Proliferation EC50, U2OS; assay type: cell-based; settings: Homo sapiens, Table 2
Protocol: as §1, §2, §3

[2] = Plasma protein binding, human; assay type: in vitro ADME
C4-2B = experiment: Proliferation EC50, C4-2B; assay type: cell-based; settings: Table 2
Protocol: as §1, §2

PC3 = experiment: MTT proliferation assay, PC3; settings: Homo sapiens
LAPC4 = experiment: Proliferation EC50, LAPC4; assay type: cell-based; settings: Homo sapiens, Table 2
Protocol: as §1, §2, §3

in vitro [3] = settings: human, HepG2 hepatoma cell line
16D = experiment: Proliferation EC50, 16D; assay type: cell-based; settings: Table 2
MSKCC-EF1 = experiment: Proliferation EC50, MSKCC-EF1; assay type: cell-based; settings: Homo sapiens; Table 2
Protocol: as §1, §2, §3

RWPE-1 = experiment: Proliferation EC50, RWPE-1; assay type: cell-based; settings: Homo sapiens, Table 2
Protocol: as §1, §2, §3

[4] = system: intracellular ATP in LNCaP95; experiment: Intracellular ATP in LNCaP95 (CellTiter-Glo); assay type: cell-based; settings: FIG. 1, without oligomycin
Protocol: The relative intracellular levels of ATP were evaluated by CellTiter-Glo® Luminescent Cell Viability Assay. 2-DG is 2-deoxy-d-glucose.
OXPHOS is oxidative phosphorylation; oligo is oligomycin; AA is antimycin A; ETX is etomoxir; FCCP is carbonyl cyanide-4-trifluoromethoxy)phenylhydrazone; and Rot is rotenone.

hERG = hERG (Homo sapiens, UniProt Q12809); experiment: hERG; settings: Table 1; last column beside CC50 (μM), own unit not clearly printed
LNCaP cells = experiment: Cell death in LNCaP cells, alone or in combination, 24 h (FIG. 6); assay type: cell-based
Protocol: FIG. 6 evaluation of Compound 1 and metformin in LNCaP cells. LNCaP cells were treated with Compound 1, oligomycin (Oli), 2-deoxy-d-glucose (2-DG), or metformin (Met), alone or in combination for 24 h.
FIGS. 2-4 provide additional results on the activity of the compounds of the disclosure. […] Co-administration of Compound 1 and metformin is illustrated in FIG. 6. LNCaP cells were treated with Compound 1, oligomycin (Oli), 2-deoxy-d-glucose (2-DG), or metformin (Met), alone or in combination for 24 h. […] None of compounds were sufficient to kill cells under the same conditions on their own.

[5] = Plasma protein binding, mouse; assay type: in vitro ADME
42D = experiment: Proliferation EC50, 42D; assay type: cell-based; settings: Table 2
42F = experiment: Proliferation EC50, 42F; assay type: cell-based; settings: Table 2
PK Oral (MMV) = assay type: in vivo; settings: dose 25 mg/kg
C4-2 = experiment: Proliferation EC50, C4-2; assay type: cell-based; settings: Table 2
Protocol: as §1, §2

[6] = Cell death when mitochondria respiration is blocked (FIGS. 5A-5C); assay type: cell-based
DU145 = experiment: Proliferation EC50, DU145; assay type: cell-based; settings: Homo sapiens, DU-145; Table 2
MCF7 = experiment: Proliferation EC50, MCF7; assay type: cell-based; settings: Homo sapiens, Table 2
Protocol: as §1, §2, §3

CRL-8155 = experiment: Cell toxicity, CRL-8155 lymphoblastoid cell line; settings: read-out: EC50 CRL8155; Table 2
LNCaP = experiment: MTT proliferation assay, LNCaP; settings: Homo sapiens
in vitro [7] = settings: human, CRL-8155 lymphoblastoid cell line
LNCaP95 = experiment: MTT proliferation assay, LNCaP95; assay type: cell-based; settings: Homo sapiens, LNCaP-95
Protocol: as §1

prostate cancer tumor = settings: 60 mg/kg, 2× daily; cited from earlier work

Sequence of hERG (Q12809 whole entry): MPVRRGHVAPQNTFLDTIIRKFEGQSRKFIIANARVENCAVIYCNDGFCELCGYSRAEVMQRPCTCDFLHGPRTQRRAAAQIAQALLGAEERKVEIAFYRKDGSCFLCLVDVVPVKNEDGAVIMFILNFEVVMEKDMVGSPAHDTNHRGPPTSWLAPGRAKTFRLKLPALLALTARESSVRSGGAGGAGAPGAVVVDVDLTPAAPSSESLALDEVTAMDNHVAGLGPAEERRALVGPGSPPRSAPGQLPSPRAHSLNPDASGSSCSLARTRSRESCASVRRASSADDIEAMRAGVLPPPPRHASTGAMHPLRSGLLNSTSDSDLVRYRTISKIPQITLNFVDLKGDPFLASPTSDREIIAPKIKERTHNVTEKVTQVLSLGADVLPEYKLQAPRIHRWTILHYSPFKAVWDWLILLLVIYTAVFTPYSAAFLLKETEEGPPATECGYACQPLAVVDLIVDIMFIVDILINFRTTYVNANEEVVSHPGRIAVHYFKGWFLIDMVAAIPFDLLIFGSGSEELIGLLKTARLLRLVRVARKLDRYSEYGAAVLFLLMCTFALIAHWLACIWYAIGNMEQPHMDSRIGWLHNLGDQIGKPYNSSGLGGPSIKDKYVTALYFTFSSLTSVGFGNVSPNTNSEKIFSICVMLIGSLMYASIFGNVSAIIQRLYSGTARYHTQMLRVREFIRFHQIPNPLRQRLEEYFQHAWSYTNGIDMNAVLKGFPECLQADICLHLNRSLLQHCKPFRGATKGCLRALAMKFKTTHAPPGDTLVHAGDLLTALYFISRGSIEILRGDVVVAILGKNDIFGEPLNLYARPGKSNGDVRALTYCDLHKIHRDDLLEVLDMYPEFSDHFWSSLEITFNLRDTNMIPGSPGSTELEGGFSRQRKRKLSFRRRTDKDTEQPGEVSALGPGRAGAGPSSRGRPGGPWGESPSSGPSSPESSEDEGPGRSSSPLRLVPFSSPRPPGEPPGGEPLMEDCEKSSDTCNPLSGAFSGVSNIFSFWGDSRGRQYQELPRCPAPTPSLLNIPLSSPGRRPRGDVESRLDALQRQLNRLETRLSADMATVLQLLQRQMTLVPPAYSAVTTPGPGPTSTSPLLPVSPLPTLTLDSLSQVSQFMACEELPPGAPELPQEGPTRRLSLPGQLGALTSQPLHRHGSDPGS

## CNc1ncnc2c1c(-c1ccc3cc(OC4CC4)ccc3c1)nn2CC(C)(C)O [Example 1, 1-(3-(6-cyclopropoxynaphthalen-2-yl)-4-(methylamino)-1H-pyrazolo[3,4-d]pyrimidin-1-yl)-2-methylpropan-2-ol]
ATP levels
  earliest time at which ATP levels are altered: 10 min
[1]
  fraction unbound: 0.04
APIPC
  EC50: 10 µM
HFF-1
  EC50: > 20 µM
HEPG2
  EC50: > 40 µM
NCI-H660
  EC50: 10 µM
U2OS
  EC50: > 20 µM
[2]
  fraction unbound: 0.007
C4-2B
  EC50: 12 µM
PC3; PC-3, read-out: EC50 PC3
  EC50: > 20 µM
PC3; PC-3, read-out: MTT % inhib @ 10 μM PC3
  inhibition at 10 µM: 16.8%
PC3; read-out: EC50 PC3
  EC50: > 20 µM
LAPC4
  EC50: 7 µM
In vitro [3]
  CC50: > 80 µM
16D
  EC50: 10 µM
MSKCC-EF1
  EC50: 5 µM
RWPE-1
  EC50: > 20 µM
[4]
  change in ATP levels, compound alone: no change
hERG
  hERG: 13.9
LNCaP cells
  cell death in combination with oligomycin or metformin: cause cell death
[5]
  fraction unbound: 0.012
42D
  EC50: 10 µM
42F
  EC50: 20 µM
PK Oral (MMV)
  AUC: 28935 µmol·min/L
PK Oral (MMV); in vivo
  Cmax: 34 µM
  Tmax: 3 h
C4-2
  EC50: 12 µM
[6]
  cell death when mitochondria respiration is blocked: induces cell death
DU145
  EC50: > 20 µM
MCF7
  EC50: 8 µM
CRL-8155
  EC50: > 40 µM
LNCaP; read-out: EC50 LNCaP
  EC50: 8 µM
LNCaP; read-out: MTT % inhib @ 10 μM LNCaP
  inhibition at 10 µM: 35.4%
In vitro [7]
  CC50: > 80 µM
LNCaP95; Table 1, LNCaP95 (AR+ PCa), unit inferred
  EC50: 5 µM
LNCaP95; read-out: MTT % inhib @ 10 μM LNCaP95
  inhibition at 10 µM: 51.5%

## O=CC[C@@H](O)[C@H](O)[C@H](O)CO [Example 2-DG, 2-deoxy-d-glucose, reference compound]
LNCaP cells
  cell death in combination with oligomycin or metformin: cause cell death

## Fc1ccc(Cl)cc1-c1nc(Nc2ccncc2)c2nccnc2n1 [SD-208]
Prostate cancer tumor
  prostate cancer tumor growth in vivo: decrease in prostate cancer tumor growth

From patent US12522606B2, “Modified pyrrolo- and pyrazolo-pyrimidines for prostate cancer therapy” (University of Washington, priority 2020, dated 2026)
